Test results from patent publication US20090137451A1, “Methods for Assessing Suitability of Cancer Patients for Treatment with Histone Deacetylase Inhibitors” (Agency for Science, Technology and Research, priority 2005, published 2009).

Assays:
Assay type in all cases: cell-based, human
[1] = system: normal IMR90 cells; assay: Cell proliferation, dose-response, normal IMR90 cells; conditions: dose-response study, FIG. 5b
Protocol: (§1) FIG. 5. Rb inactivation enhances Bim expression and sensitizes HDACIs-induced apoptosis. (a) U2OS cells were infected with Ad-E1A or Ad-LacZ for 24 h and treated with SAHA (1 μM) for additional 48 h. Cell death was determined by FACS analysis (right panel), and the levels of Bim and p73 were assessed by immunoblotting using antibodies against the indicated proteins (left panel). (b) Normal IMR90 and transformed IMR90-E1A cells were treated with SAHA at indicated concentrations and cell proliferation was evaluated for indicated times. (c) Expression of E1A results in upregulation of Bim and apoptosis potentiation in response to SAHA and TSA. IMR90 and IMR90-E1A cells were treated with SAHA (2.5 μM) and TSA (300 nM) for 48 h. Cell death was determined by FACS analysis (left panel), and the levels of Bim and p73 were assessed by immunoblotting using antibodies against indicated proteins (right panel). (d) IMR90-E1A cells transfected with Bim siRNA or control siRNA (NC siRNA) were treated with TSA (800 nM) for 24 h. The expressions of Bim and β-actin were assessed by immunoblotting using antibodies against the indicated proteins. Apoptosis was evaluated by FACS analysis. […] The expressions of E2F1, Bim and PARP were assessed by immunoblotting using antibodies against the indicated proteins. […] Apoptosis was evaluated by FACS analysis. […]

[2] = system: E1A-transformed IMR90 cells; assay: Apoptosis by FACS analysis in E1A-transformed IMR90 cells; conditions: SAHA 2.5 μM, TSA 300 nM; 48 h
Protocol: FIG. 5. Rb inactivation enhances Bim expression and sensitizes HDACIs-induced apoptosis. (a) U2OS cells were infected with Ad-E1A or Ad-LacZ for 24 h and treated with SAHA (1 μM) for additional 48 h. Cell death was determined by FACS analysis (right panel), and the levels of Bim and p73 were assessed by immunoblotting using antibodies against the indicated proteins (left panel). (b) Normal IMR90 and transformed IMR90-E1A cells were treated with SAHA at indicated concentrations and cell proliferation was evaluated for indicated times. (c) Expression of E1A results in upregulation of Bim and apoptosis potentiation in response to SAHA and TSA. […] Cell death was determined by FACS analysis (left panel), and the levels of Bim and p73 were assessed by immunoblotting using antibodies against indicated proteins (right panel). […] The expressions of Bim and β-actin were assessed by immunoblotting using antibodies against the indicated proteins. Apoptosis was evaluated by FACS analysis. […] The expressions of E2F1, Bim and PARP were assessed by immunoblotting using antibodies against the indicated proteins. […] Apoptosis was evaluated by FACS analysis.
Cells were harvested and fixed in 70% ethanol. […] The stained cells were analyzed for DNA content by fluorescence-activated cell sorting (FACS) in a FACScalibur (Becton Dickinson Instrument, San Jose, Calif.). […]

[3] = system: ER-E2F1 expressing HCT116 p53 null cells; assay: Cell death (sub-G1) by PI staining and FACS in ER-E2F1 expressing cells; conditions: for sub-G1 cells indicative of cell death: 48 h; for SAHA-induced apoptosis (cells in Sub-G1): in the presence of 4-OHT, SAHA 24 h
Protocol: The effect of Bim-specific siRNA on HDACI-induced apoptosis upon E2F1 overexpression. (a) ER-E2F1 were transfected with nonspecific control siRNA (NC siRNA) or Bim-specific siRNA for 48 h, and then either left untreated (−) or treated with 4-OHT, SAHA or both for additional 24 h. […] Cell death was analyzed by flow cytometry following propidium iodide staining (right panel). The percentages of cells in Sub-G1 are indicated. (b) ER-E2F1 were transfected with nonspecific control siRNA (NC siRNA) or Bim-specific siRNA for 48 h, and then either left untreated (−) or treated with 4-OHT, 100 nM TSA or both for additional 48 h.
Cells were harvested and fixed in 70% ethanol. Fixed cells were stained with propidium iodide (50 μg/ml) after treatment with RNase (100 μg/ml). The stained cells were analyzed for DNA content by fluorescence-activated cell sorting (FACS) in a FACScalibur (Becton Dickinson Instrument, San Jose, Calif.). Cell cycle fractions were quantified using the CellQuest software (Becton Dickinson).
To definitively establish the role of Bim in HDACIs-induced apoptosis upon E2F1 activation, we used RNA interference to silence Bim expression and analyzed its biological effects. To this end, we transfected ER-E2F1 expressing cells with Bim-specific siRNA and treated with SAHA for 24 h in the presence or absence of 4-OHT. As controls, cells were also transfected with an irrelevant siRNA.

[4] = system: ER-E2F1 expressing cells; assay: Colony formation assay; conditions: 100 nM TSA or 1 μM SAHA for 24 h, with 4-OHT; colonies stained with crystal violet
Protocol: FIG. 1. HDACIs SAHA and TSA promote E2F1-mediated cell death (a) p53 null HCT116-ER-E2F1 expressing cells or control ER expressing cells were treated with or without 4-OHT. Cyclin E and p73 expression were evaluated by immunoblot analysis. (b) ER-E2F1 expressing or control cells were treated with 1 μM SAHA (left panel) or 100 nM TSA (right panel), in the presence or absence of 4-OHT. After 48 h, cells were harvested and cell death was assessed by PI staining using FACS. Mean results of three independent experiments were shown with standard deviations. (c) Colony formation assay. […] (d) Saos-2 and HCT116 cells infected with adenovirus containing E2F1 or LacZ as indicated were treated with 100 nM TSA for 24 h, and cell death was analyzed by FACS.
1000 cells were plated per well of a 6-well plate for 24-48 h and then followed by 100 nM TSA or 1 μM SAHA treatment in the presence or absence of 4-OHT. […] Colonies were stained with crystal violet and counted after 12 days.
To investigate whether E2F1 activation induces sensitization of cells to HDACIs-induced cell death, we analyzed the cell cycle profiles by FACS (fluorescence-activated cell sorter) in ER-E2F1 expressing HCT116 p53 null cells (ER-E2F1) and the control cells expressing ER-binding domain only (ER) following treatment with the HDACIs SAHA or TSA in the presence or absence of 4-OHT. […]

[5] = system: transformed IMR90-E1A cells; assay: Cell proliferation, dose-response, transformed IMR90-E1A cells; conditions: dose-response study, FIG. 5b
Protocol: as §1

[6] = agent alone, 1 μM SAHA, PI staining FACS
[7] = both 4-OHT and HDACI (1 μM SAHA or 100 nM TSA)

Compound	proliferation [1]	apoptosis [2]	sub-G1 cells indicative of cell death [3, 6]	sub-G1 cells indicative of cell death [3, 7]	SAHA-induced apoptosis (cells in Sub-G1) ([3]; cells treated with Bim siRNA)	SAHA-induced apoptosis (cells in Sub-G1) ([3]; control siRNA treated cells)	effect of E2F1 activation by 4-OHT on HDACI-induced growth inhibition [4]	proliferation [5]
O=C(CCCCCCC(=O)Nc1ccccc1)NO [SAHA, suberoylanilide hydroxamic acid]	substantially inhibited proliferation	~60%	~23%	75%	18%	49%	greatly promoted	substantially inhibited proliferation
CC(/C=C/C(=O)NO)=C\[C@@H](C)C(=O)c1ccc(N(C)C)cc1 [TSA, Trichostatin A]		~60%		Identical results			greatly promoted	
4-hydroxytamoxifen [4-OHT]			approximately 13%					
